Source: article PMC10321483 (Chemical Science, 2023)
Where two headings read alike, the source gives them in different places.

Legend:
[1] = target: T1, BlaC (Mycobacterium tuberculosis, UniProt P9WKD3); experiment: BlaC fluorogenic inhibition assay with FC5 (dose-response); type: biochemical; settings: Table S5 HTS hits, 30 minute inhibitor pre-incubation, two independent repeats; for IC50: pIC50 BlaC
T1 construct: made in house; host or cells: E. coli
Method: Two types of controls were used. […] In control 2, the BlaC mixture was substituted with the assay buffer. This mixture was incubated for 30 minutes at room temperature without shaking. […] Data were analysed using ActivityBase (IDBS).

[2] = target: T2, LdtMt2 (Mycobacterium tuberculosis, UniProt I6Y9J2); experiment: biochemical; type: biochemical; design: made in house; host or cells: E. coli; settings: for IC50: Table S5 HTS hits, 30 minute inhibitor pre-incubation, two independent repeats, read-out: pIC50 LdtMt2 (converted)
[3] = target: T2, LdtMt2; experiment: Rate constant of covalent target inactivation (kinact/KI), endpoint competition assay with probe 2; type: biochemical; design: made in house; host or cells: E. coli
[4] = target: T2, LdtMt2; experiment: biochemical; type: binding; design: made in house; host or cells: E. coli; settings: for ΔTm at 500 µM: read-out: ΔTm: difference in melting point of LdtMt2 relative to unreacted LdtMt2 (43.8 °C)
Method: LdtMt2 (5 μM) was incubated with the inhibitor (500 μM) in assay buffer (50 mM tris pH 7.5) for 30 minutes at room temperature in 96-well white PCR plates (25 μL final volume, Starlab). SYPRO Orange (final concentration 6×, according to manufacturer's definition, Invitrogen) was then added and the plate was sealed using a transparent plastic film (Polyolefin StarSeal, Starlab). Fluorescence was monitored (with λex = 492 nm and λem = 610 nm) using a CFX96 Touch Real-Time PCR Detection System (Bio-Rad), while the temperature was increased from 20 to 95 °C in increments of 0.2 °C. Melting temperatures (Tms) were determined using the CFX Maestro Software (Bio-Rad).

[5] = tested on: M. tuberculosis (strain H37Rv); experiment: Extracellular assay: M. tuberculosis H37Rv in medium under replicating conditions; type: cell-based, Mycobacterium tuberculosis
[6] = tested on: HepG2 cells; experiment: HepG2 cytotoxicity assay (CellTiter Glo); type: cell-based; settings: 48 h, ATP read-out
Method: Solutions of the test compounds (250 nL per well; 11 serial dilutions of 1/3 with starting concentration 100 μM) were dispensed in tissue-culture treated black clear-bottomed 384-well plates (Greiner, cat. no. 781091) with an Echo 555 instrument. 25 μL of HepG2 (ATCC HB-8065) cells (∼3000 cells per well) grown to confluency in Eagle's Minimal Essential Medium (MEM) supplemented with 10% (v/v) heat-inactivated FBS, 1% (v/v) non-essential amino acids (NEAA), and 1% (v/v) penicillin/streptomycin were added to each well. Plates were incubated at 37 °C with 20% O2 and 5% CO2 for 48 h. The plates were then equilibrated to room temperature. ATP levels, measured with CellTiter Glo kit (Promega), were used as cell viability read-out. 25 μL of CellTiter Glo substrate dissolved in the buffer was added to each well. Plates were incubated at room temperature for 10 min and read on ViewLux (PerkinElmer) […].

[7] = 5 µM LdtMt2, 500 µM inhibitor, SYPRO Orange, 50 mM Tris pH 7.5
[8] = 100 nM LdtMt2, 10 µM probe 2, 3 h incubation, n=4
[9] = 100 nM LdtMt2, 10 µM probe 2, 3 h incubation, n=4, read-out: kinact/KI

T2 sequence (I6Y9J2 56-408): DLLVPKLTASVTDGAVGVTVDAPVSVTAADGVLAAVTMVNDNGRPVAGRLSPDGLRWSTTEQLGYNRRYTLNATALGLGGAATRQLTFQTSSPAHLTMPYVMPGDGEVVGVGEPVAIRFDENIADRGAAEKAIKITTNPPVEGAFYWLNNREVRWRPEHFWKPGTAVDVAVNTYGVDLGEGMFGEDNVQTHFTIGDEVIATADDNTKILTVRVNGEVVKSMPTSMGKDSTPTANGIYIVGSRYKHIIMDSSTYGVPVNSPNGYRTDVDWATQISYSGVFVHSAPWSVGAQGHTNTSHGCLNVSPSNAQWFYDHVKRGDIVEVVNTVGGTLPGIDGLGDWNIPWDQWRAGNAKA
T1 sequence (P9WKD3 35-307): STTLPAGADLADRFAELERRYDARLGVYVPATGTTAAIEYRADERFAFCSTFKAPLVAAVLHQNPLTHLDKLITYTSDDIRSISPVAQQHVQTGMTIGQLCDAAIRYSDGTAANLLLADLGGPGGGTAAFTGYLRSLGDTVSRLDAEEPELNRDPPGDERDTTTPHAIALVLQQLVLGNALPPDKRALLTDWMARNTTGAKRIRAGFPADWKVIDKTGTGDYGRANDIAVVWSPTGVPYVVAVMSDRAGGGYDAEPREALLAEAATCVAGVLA

| SMILES | IC50 [1] | LE (ligand efficiency) ([2]; Table S5, for LdtMt2) | IC50 [2] | Tm: melting point of LdtMt2 after pre-incubation with the compound [4, 7] | ΔTm at 500 µM [4] | LE (ligand efficiency) [2] | kinact/KI [3, 8] | ΔTm: difference in melting point of LdtMt2 relative to unreacted LdtMt2 (43.8 °C) [4] | Tm: melting point of LdtMt2 after pre-incubation with the compound ([4]; pH 7.5, in °C (unit assumed)) | further results |
| --- | --- | --- | --- | --- | --- | --- | --- | --- | --- | --- |
| CS(=O)(=O)c1ccc(F)c(N2C(=O)C=CC2=O)c1 [Compound 4] | 60300 nM | 0.62 | 87.1 nM | 45.6 ± 0.28 °C | 1.8 °C | – | – | – | – | kinact/KI [3]: 36.5 ± 7.9 M⁻¹ s⁻¹ |
| N#Cn1c(-c2ccncc2)nc2ccc(-c3ccco3)cc21 [Compound 33] | – | – | – | – | – | 0.51 | 71.8 ± 1.1 M⁻¹ s⁻¹ | -0.5 | 43.3 ± 0.09 | – |
| N#Cn1c(-c2ccc(OC3CCOCC3)cc2)nc2ccccc21 [Compound 32] | – | – | – | – | – | 0.47 | 86.3 ± 2.6 M⁻¹ s⁻¹ | -1.5 | 42.3 ± 0.09 | – |
| N#Cn1c(-c2ccc3nccnc3c2)nc2ccccc21 [Compound 26] | – | – | – | – | – | 0.53 | 65.0 ± 4.4 M⁻¹ s⁻¹ | -2.1 | 41.7 ± 0.09 | lowered the melting temperature of LdtMt2 by [4]: 2.1 °C |
| N#Cn1c(-c2ccc(-c3nccs3)cc2)nc2ccccc21 [Compound 29] | – | – | – | – | – | 0.51 | 1164 ± 105 M⁻¹ s⁻¹ | -0.9 | 42.9 ± 0.19 | – |
| Cc1ccc(C=CC(=O)Nc2ccc(S(N)(=O)=O)cc2)o1 [Compound 9] | – | – | – | – | – | 0.53 | 90.7 ± 4.7 M⁻¹ s⁻¹ | – | – | Tm: melting point of LdtMt2 after pre-incubation with the compound ([4]; pH 7.5): 43.1 ± 0.09 °C |
| Cc1ccc(C=CC(=O)Nc2ccccc2C(N)=O)o1 [Compound 11] | – | – | – | – | – | 0.56 | 172 ± 6.0 M⁻¹ s⁻¹ | +0.2 | 44.0 ± 0.16 | pIC50 BlaC [1]: < 4.0 |
| COc1ccc(COC(=O)C2N3C(=O)C(Br)C3S(=O)(=O)C2(C)C)cc1 (stereo not drawn) [Compound 21] | – | – | – | – | – | 0.45 | 53.2 ± 4.7 M⁻¹ s⁻¹ | -0.7 | 43.1 ± 0.09 | – |
| O=c1c2cc(Cl)c(Cl)cc2sn1CCO [Compound 15] | 427 nM | 0.74 | 10.2 nM | 43.5 ± 0.09 °C | -0.3 °C | – | – | – | – | MIC50 ([5]; Mycobacterium tuberculosis): > 100 µM; IC50 ([6]; Homo sapiens, HepG2): 9550 ± 220 nM |
| O=C1C=CC(=O)N1c1ccccc1 [Compound 3] | 9330 nM | 0.86 | 70.8 nM | 45.0 ± 0.16 °C | 1.2 °C | – | – | – | – | kinact/KI [3]: 3990 ± 356 M⁻¹ s⁻¹ |
| N#Cn1c(-c2ccc(F)cc2C(F)(F)F)nc2ccccc21 [Compound 22] | > 100000 nM | 0.51 | 29.5 nM | 42.5 ± 0.09 °C | -1.3 °C | – | – | – | – | kinact/KI [3]: 55.1 ± 3 M⁻¹ s⁻¹ |
| N#CN1CCCN1C(=O)OCc1ccc(Cl)c(Cl)c1 [Compound 37] | – | – | – | – | – | 0.59 | 8.44 ± 1.2 M⁻¹ s⁻¹ | -1.5 | 42.3 ± 0.09 | – |
| N#Cn1c(-c2ccnnc2)nc2ccccc21 [Compound 24] | – | – | – | – | – | 0.66 | 158 ± 5.7 M⁻¹ s⁻¹ | – | 42.0 ± 0.00 | pIC50 BlaC [1]: < 4.0 |
| O=C1OC2(c3ccc(O)cc3Oc3cc(OS(=O)(=O)c4ccc([N+](=O)[O-])cc4[N+](=O)[O-])ccc32)c2ccccc21 (stereo not drawn) [probe 2, reference compound] | – | – | – | – | – | – | – | – | – | (kinact/KI)probe ([3]; from kobs, LdtMt2 100 nM, probe 2 100 nM to 10 μM): 39.8 M⁻¹ s⁻¹ |
| Cc1nc(-c2ccc(-c3nc4ccccc4n3C#N)cc2)cs1 [Compound 30] | – | – | – | – | – | 0.49 | 236 ± 9.5 M⁻¹ s⁻¹ | -1.6 | 42.2 ± 0.00 | MIC50 [5]: > 100 µM; IC50 [6]: 3980 ± 100 nM |
| N#Cn1c(-c2cncnc2)nc2ccccc21 [Compound 25] | – | – | – | – | – | 0.66 | 77.5 ± 6.0 M⁻¹ s⁻¹ | – | – | pIC50 BlaC [1]: < 4.0 |
| N#Cn1c(-c2cc(F)cc(C(F)(F)F)c2)nc2ccccc21 [Compound 23] | – | – | – | – | – | 0.51 | 265 M⁻¹ s⁻¹ | -1.3 | 42.5 ± 0.09 | pIC50 BlaC [1]: < 4.0; MIC50 [5]: > 100 µM; IC50 [6]: 28800 nM |
| NC(=O)C=CC(=O)Nc1ccc(Cl)cc1 [Compound 13] | > 100000 nM | 0.75 | 417 nM | 44.8 ± 0.00 °C | 1 °C | – | – | – | – | kinact/KI [3, 9]: 6.48 ± 0.11 M⁻¹ s⁻¹ |
| N#Cn1c(-c2ccncc2)nc2ccc(-c3ccncc3)cc21 [Compound 34] | – | – | – | – | – | 0.49 | 68.4 ± 2.7 M⁻¹ s⁻¹ | -1.7 | 42.1 ± 0.09 | pIC50 BlaC [1]: < 4.0 |
| COc1cccc(NC(=O)/C(Cl)=C(\Cl)S(=O)(=O)Cc2ccccc2Cl)n1 [Compound 8] | > 100000 nM | 0.43 | 69.2 nM | – | 0.7 °C | – | – | – | – | kinact/KI [3]: 91.6 ± 2 M⁻¹ s⁻¹ |
| CCC(C)C(NC(=O)OCc1ccccc1)C(=O)CCl (stereo not drawn) [Compound 2] | > 100000 nM | 0.56 | 77.6 nM | 43.7 ± 0.09 °C | -0.1 °C | – | – | – | – | kinact/KI [3]: 68.4 ± 3.5 M⁻¹ s⁻¹ |
| N#Cn1c(-c2cnc(-c3cccs3)nc2)nc2ccccc21 [Compound 31] | 11200 nM | 0.51 | 47.9 nM | 42.1 ± 0.10 °C | -1.7 °C | – | – | – | – | kinact/KI [3, 9]: 609 ± 11 M⁻¹ s⁻¹ |
| CC(C)(C)OC(=O)Nc1ccc(N2C(=O)C=CC2=O)cc1 [Compound 6] | – | – | – | – | – | 0.52 | 127 ± 7.7 M⁻¹ s⁻¹ | +1.7 °C | – | Tm: melting point of LdtMt2 after pre-incubation with the compound ([4]; pH 7.5): 45.5 ± 0.09 °C |
